Assay results: patent US12721808B2, “Orris root extracts, compositions, and methods for skin applications” (ACCESS BUSINESS GROUP INTERNATIONAL LLC, priority 2021, dated 2026)

Test system: B16-F10 (B16) cells
Assay: Bioassay Directed Fractionation (BDF) with B16 cell culture pigmentation assay
Assay type: cell-based
Conditions: LC fraction (20 sec) of Orris root extract corresponding to the compound's peak, FIG. 2
Method: Sample extracts were prepared at 50 mg/ml in DMSO and sonicated for 20 min. Samples solutions were then filtered through 0.2 μm Whatman Anotop 25 syringe filter into autosampler vials for assay. The LC-MS system was modified to incorporate a 10:1 splitter that was positioned between the UV detector and MS ion source. The majority of LC effluent was directed to a Waters Fraction Collector II fitted with a 96-deep well plate into which fractions were collected by time at intervals of 20 sec/well for the first 32 minutes of each run (96 wells/run). The LC column was a XBridge Shield RP18, 5 μm, 4.6×250 mm maintained at ambient temperature (22° C.). The solvent program was ramped linearly as follows: 95% A/5% B at time 0, to 100% B at 30 min, hold at 100% B to 32 min, then to 95% A/5% B at 32.1 min and hold 95% A/5% B until 36 min. The flow rate was 0.8 mL/min and an injection volume of […] was used (0.5 mg solids/injection). Effluent from four consecutive LC runs was collected per plate (2 mg solids/plate). Plates were then dried under nitrogen at 40° C. to remove acetonitrile and residual water was removed by freeze drying. Plates were stored at −80° C. until to assayed for pigmentation response.
The results of the BDF are shown in FIG. 2, with LC-UV chromatogram A at 260 nm showing phytochemical peak profile, and time-aligned bar graph B (with each bar representing a fraction from the LC effluent collected for 20 seconds), showing pigmentation responses using B16 cell culture assay.
Primary cells and cell lines were grown in a humidified atmosphere of 5% CO2 at 37° C. […]
B16 cells (6000 cells/well) were pre-cultured in 96-well plates in DMEM medium supplemented with 10% FBS and 1% P/S for 24 hours. […] The absorbance at 405 nm was measured, and MTT (3-(4,5-dimethylthiazol-2-yl)-2,5-diphenyltetrazolium bromide) assay was performed to examine the viability of cells. […]

Structure (SMILES) | pigmentation response
COc1c2c(cc3occ(-c4ccc(O[C@@H]5O[C@H](CO)[C@@H](O)[C@H](O)[C@H]5O)cc4)c(=O)c13)OCO2 [germanaism B, Germanaism B] | Increased pigmentation
CC1=CC[C@H](C)C(C)(C)[C@@H]1/C=C/C(C)=C/CC[C@@]1(CO)[C@H](CCCO)/C(=C(/C)C=O)CC[C@]1(C)O [iripallidal, Iripallidal] | reduced pigmentation
C=C1CC[C@H](C)C(C)(C)[C@@H]1/C=C/C(C)=C/CC[C@@]1(CO)[C@H](CCCO)/C(=C(/C)C=O)CC[C@]1(C)O [iriflorental, Iriflorental] | reduced pigmentation
